According to ChEMBL document CHEMBL1201862, “PubChem BioAssay data set” (2004):
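Five concentrations, 48 hours, 96-well plates. GI50 marks 50% less growth.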 The source made the active and inactive calls. Cut-off read from the data, not from the text of the source: active = GI50 up to about 1.1 µM and inactive = higher. Where a SMILES comes first, the peptide text is derived from it. [ ]: non-standard residue; d: D form. 2Nal = N[CH](Cc1ccc2ccccc2c1)C(=O)O

Legend:
Assay in all cases: DTP human tumour cell line panel, 48 h
RXF 393 = system: RXF 393
HOP-62 = system: HOP-62
HT-29 = system: HT-29
HCT-15 = system: HCT-15
Malme-3M = system: Malme-3M
PC-3 = system: PC-3
NCI/ADR-RES = system: NCI/ADR-RES
SK-MEL-28 = system: SK-MEL-28
CAKI-1 = system: CAKI-1
UO-31 = system: UO-31
MDA-MB-231 = system: MDA-MB-231
HCT-116 = system: HCT-116
U-251 = system: U-251
DU-145 = system: DU-145
OVCAR-4 = system: OVCAR-4
NCI-H522 = system: NCI-H522
NCI-H460 = system: NCI-H460
A549 = system: A549
SK-MEL-5 = system: SK-MEL-5
SR = system: SR

Compound	GI50 (RXF 393)	GI50 (HOP-62)	GI50 (HT-29)	GI50 (HCT-15)	GI50 (Malme-3M)	GI50 (PC-3)	GI50 (NCI/ADR-RES)	GI50 (SK-MEL-28)	GI50 (CAKI-1)	GI50 (UO-31)	GI50 (MDA-MB-231)	GI50 (HCT-116)	GI50 (U-251)	GI50 (DU-145)	GI50 (OVCAR-4)	GI50 (NCI-H522)	GI50 (NCI-H460)	GI50 (A549)	GI50 (SK-MEL-5)	GI50 (SR)
CC(NC(=O)C(N)Cc1ccccc1)C(=O)NC(Cc1ccc(O)cc1)C(=O)NC(Cc1c[nH]c2ccccc12)C(=O)NC(CCCCN)C(=O)NC(C(=O)NC(C)C(=O)NC(Cc1ccc2ccccc2c1)C(N)=O)C(C)C (stereo not given) (H-FAYWKVA[2Nal]-NH2; configuration not given here)	> 12.5 µM (inactive)	> 12.5 µM (inactive)	> 12.5 µM (inactive)	> 12.5 µM	> 12.5 µM (inactive)	> 12.5 µM (inactive)	> 12.5 µM (inactive)	> 12.5 µM (inactive)	> 12.5 µM (inactive)	> 12.5 µM (inactive)	> 12.5 µM (inactive)	> 12.5 µM (inactive)	> 12.5 µM (inactive)	> 12.5 µM (inactive)	> 12.5 µM (inactive)	> 12.5 µM (inactive)	> 12.5 µM (inactive)	> 12.5 µM (inactive)	> 12.5 µM (inactive)	
C[n+]1c2ccccc2n2c3ccccc3c(NCCc3ccccn3)c(C#N)c21	1.01 µM (active)	2.11 µM (inactive)	2.99 µM (inactive)	2.33 µM	2.81 µM (inactive)	2.55 µM (inactive)	13.8 µM (inactive)	2.32 µM (inactive)	1.98 µM (inactive)	1.76 µM (inactive)	1.42 µM (inactive)	0.933 µM (active)	1.68 µM (inactive)	2.72 µM (inactive)	0.804 µM (active)	0.828 µM (active)	1.04 µM (active)	3.62 µM (inactive)	2.9 µM (inactive)	
COc1ccc2[nH]cc(CCNC(=O)[C@H](Cc3ccc(O)cc3)NC(=O)[C@@H](NCC(F)(F)F)C(C)C)c2c1	> 100 µM (inactive)	> 100 µM (inactive)	52.5 µM (inactive)	> 100 µM	> 100 µM (inactive)	> 100 µM (inactive)	> 100 µM (inactive)	65.5 µM (inactive)		> 100 µM (inactive)	> 100 µM (inactive)	95.5 µM (inactive)	74.1 µM (inactive)	> 100 µM (inactive)	40 µM (inactive)	26.5 µM (inactive)	48 µM (inactive)	45.7 µM (inactive)		> 100 µM (inactive)
Cc1ccc(S(=O)(=O)NC(=O)Nc2ccc(S(N)(=O)=O)cc2S(N)(=O)=O)cc1	> 100 µM (inactive)	> 100 µM (inactive)	> 100 µM (inactive)	> 100 µM	> 100 µM (inactive)	> 100 µM (inactive)	> 100 µM (inactive)	> 100 µM (inactive)	> 100 µM (inactive)	> 100 µM (inactive)	> 100 µM (inactive)	> 100 µM (inactive)	> 100 µM (inactive)	> 100 µM (inactive)	> 100 µM (inactive)	> 100 µM (inactive)		> 100 µM (inactive)	> 100 µM (inactive)	
COC(=O)CN1Cc2cc(C)cc(c2O)CN(CC(=O)OC)Cc2cc(C)cc(c2O)CN(CC(=O)OC)Cc2cc(C)cc(c2O)C1	> 33.7 µM (inactive)	> 40.3 µM (inactive)	> 47.9 µM (inactive)	> 66.4 µM	> 100 µM (inactive)	> 32.9 µM (inactive)	> 100 µM (inactive)	99.8 µM (inactive)	> 100 µM (inactive)	> 44 µM (inactive)	> 36.8 µM (inactive)	12.6 µM (inactive)	> 45.8 µM (inactive)	> 41 µM (inactive)	> 100 µM (inactive)	> 100 µM (inactive)	0.272 µM (active)	> 100 µM (inactive)	> 57.5 µM (inactive)	
COC(=O)C1=C(C(=O)OC)C2(C)CCC(=O)C1O2 (stereo not given)	> 10 µM (inactive)	> 10 µM (inactive)	> 10 µM (inactive)	> 10 µM	> 10 µM (inactive)	> 10 µM (inactive)	> 10 µM (inactive)	> 10 µM (inactive)	> 10 µM (inactive)	> 10 µM (inactive)	> 10 µM (inactive)	> 10 µM (inactive)	> 10 µM (inactive)	> 10 µM (inactive)	> 10 µM (inactive)		> 10 µM (inactive)	> 10 µM (inactive)	> 10 µM (inactive)	> 10 µM (inactive)
C=CCN(c1cc(OCc2ccccc2)c(NC(C)=O)cc1[N+](=O)[O-])S(C)(=O)=O	18.7 µM (inactive)	22 µM (inactive)	> 100 µM (inactive)	> 100 µM	26.7 µM (inactive)	> 100 µM (inactive)	29.6 µM (inactive)	> 100 µM (inactive)	42 µM (inactive)	33.1 µM (inactive)	15.7 µM (inactive)	28.5 µM (inactive)		> 100 µM (inactive)	> 100 µM (inactive)	35.5 µM (inactive)	> 100 µM (inactive)	33.2 µM (inactive)	> 100 µM (inactive)	
